Patent publication US8062639B2 (priority 2008, dated 2011)

Experiments:
[1] = target: T1, soluble dog Na/K ATPase (Canis lupus familiaris, UniProt P50997); assay: Na/K ATPase activity by pNPP conversion; assay type: biochemical; details: rate at 400 nm over 30 min, various concentrations (FIG. 2)
T1 construct: soluble Dog kidney Na/K ATPase; purchased SigmaAldrich; host or cells: dog kidney (the tissue is named only in the general description)

[2] = system: conscious rats; assay type: in vivo, rat; details: for restoration of plasma/blood volume after hemorrhage / death after hemorrhage plus infusion: 20 ml/kg hemorrhage plus infusion of 2 mg/ml (5 ml/hr) (FIG. 3); for change in plasma volume, infusion alone: infusion of 2 mg/ml (5 ml/hr), no hemorrhage, 8 rats/group (FIG. 3)

## C[C@]12CC[C@H](O)C[C@@]1(O)CC[C@@H]1[C@@H]2CC[C@]2(C)[C@@H](c3ccc(=O)oc3)C[C@H]3O[C@]132 [marinobufogenin]
[1]
  inhibition of Na/K ATPase (conversion of pNPP to pNP): inhibits Na/K ATPase in a dose-response manner
[2]
  restoration of plasma/blood volume after hemorrhage: did not have this effect

## C[C@@H]1O[C@@H](O[C@H]2C[C@@H](O)[C@]3(CO)[C@H]4[C@H](O)C[C@]5(C)[C@@H](C6=CC(=O)OC6)CC[C@]5(O)[C@@H]4CC[C@]3(O)C2)[C@H](O)[C@H](O)[C@H]1O [ouabain]
[1]
  inhibition of Na/K ATPase (conversion of pNPP to pNP): inhibits Na/K ATPase in a dose-response manner
[2]
  death after hemorrhage plus infusion: leads to death
  restoration of plasma/blood volume after hemorrhage: prevents restoration
  change in plasma volume, infusion alone: no effect on plasma volume

## C[C@]12CC[C@H](O)C[C@H]1CC[C@@H]1[C@@H]2CC[C@]2(C)[C@@H](c3ccc(=O)oc3)CC[C@]12O [Bufalin]
[2]
  death after hemorrhage plus infusion: leads to death
  restoration of plasma/blood volume after hemorrhage: prevents restoration
  change in plasma volume, infusion alone: no effect on plasma volume
